Measurements as given in publication PMC7830714 (Molecular pharmaceutics, 2017).

Biological target: T1, ABCG2 (Homo sapiens, UniProt Q9UNQ0)
T1 sequence (Q9UNQ0 1-655): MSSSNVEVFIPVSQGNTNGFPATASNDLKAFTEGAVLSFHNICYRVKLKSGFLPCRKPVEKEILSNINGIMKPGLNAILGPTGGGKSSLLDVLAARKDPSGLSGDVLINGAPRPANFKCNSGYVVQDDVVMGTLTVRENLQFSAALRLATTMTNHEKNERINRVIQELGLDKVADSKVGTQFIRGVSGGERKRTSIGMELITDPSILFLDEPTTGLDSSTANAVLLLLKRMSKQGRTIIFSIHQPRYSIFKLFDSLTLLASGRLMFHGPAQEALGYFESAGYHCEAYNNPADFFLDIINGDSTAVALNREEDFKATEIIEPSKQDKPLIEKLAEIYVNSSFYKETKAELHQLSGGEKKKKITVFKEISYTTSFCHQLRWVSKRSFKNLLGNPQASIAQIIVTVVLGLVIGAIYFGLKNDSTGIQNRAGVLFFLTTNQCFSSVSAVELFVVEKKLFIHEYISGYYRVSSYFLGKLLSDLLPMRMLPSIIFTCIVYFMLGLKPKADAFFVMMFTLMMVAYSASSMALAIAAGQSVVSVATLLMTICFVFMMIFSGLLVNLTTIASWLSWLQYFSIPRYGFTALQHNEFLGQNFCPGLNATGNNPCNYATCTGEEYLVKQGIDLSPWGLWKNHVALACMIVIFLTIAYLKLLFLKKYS
Experiment: inhibition of […]IAAP photoaffinity labeling in MCF7-FLV1000 membrane vesicles
Assay type: binding

SMILES: N#Cc1ccc(-c2c(-c3ncn[nH]3)sc(N3CCOCC3)c2C#N)c(F)c1 [PF-4989216]
- % inhibition of photolabeling at 10 μM: ~ 55
